Patent publication US4374149A, “α-{[(Arylalkyl)amino]alkyl}-4-hydroxy-3-(lower-alkylsul finyl)benzenemethanols” (Sterling Drug Inc., priority 1978, dated 1983)
Structures can show the parent of a compound that is named as a salt.

Tests used:
β-adrenergic = β-adrenergic blocking activity, inhibition of isoproterenol-elicited heart rate increase in pentobarbitalized dog; assay type: in vivo; conditions: i.v.; for Dog β-blockade AED50 (approximate intravenous dose for 50% inhibition of isoproterenol-elicited heart rate increase): pentobarbitalized dog
Experimental: The β-adrenergic blocking activity was determined in the pentobarbitalized dog as judged by the ability of the test compound to inhibit the elevation in heart rate elicited by a 0.5 mcg./kg. i.v. injection of isoproterenol.
^e AED50 = approximate intravenous dose required to cause 50%

hind limb vasculature = assay: Vasodilator activity, perfusion pressure in hind limb vasculature of anesthetized dog; assay type: in vivo
Description: Vasodilator activity was judged on the basis of observed reduction in perfusion pressure in the hind limb vasculature of the anesthetized dog determined according to the procedure described by Jandhyala et al., European J. Pharm. 17, 357 (1972), and also on the basis of percent reduction in perfusion pressure as measured in the isolated rabbit ear artery according to the method described by De LaLande et al., Aust. J. Exp. Biol. Med. Sci. 43, 639 (1965).
^c AED50 = approximate intraarterial dose required to cause a 50

[1] = test system: histamine-induced bronchoconstriction; assay: β-adrenergic stimulant activity, block of histamine-induced bronchoconstriction in the dog; assay type: in vivo
systolic blood pressure = assay: Antihypertensive activity, reduction in systolic blood pressure, single oral medication, unanesthetized spontaneous hypertensive rat; assay type: in vivo; conditions: P.O., single dose, unanesthetized SH rat
Experimental: Antihypertensive activity was determined on the basis of the observed reduction in systolic blood pressure measured according to the method of H. Kersten et al., J. Lab. and Clin. Med. 32, 1090 (1947) following a single oral medication in the unanesthetized spontaneous hypertensive rat described by Okamato et al., Japan Circulation J. 27, 282 (1963).
^a AHD40 = single oral dose required to induce a 40 mm. average

[2] = test system: isolated rabbit ear artery; assay: Vasodilator activity, perfusion pressure in isolated rabbit ear artery
Outline: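 Percent reduction in perfusion pressure of the isolated rabbit ear artery (De LaLande method) as the vasodilation read-out; vasodilator activity also judged from reduced hind-limb perfusion pressure in the anesthetized dog.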

blood pressure = assay: Antihypertensive activity, sustained lowering of blood pressure, repeated oral medication, unanesthetized trained renal hypertensive dog; assay type: in vivo
Description: Antihypertensive activity was also judged on the basis of sustained reduction of blood pressure observed in the unanesthetized trained renal hypertensive dog following repeated oral medication according to the procedure described by Lape et al., Arch.
^b MED10 = minimum repeated oral daily dose required to effect a

[3] = Local anesthetic activity (method of Bulbring and Wadja); assay type: in vivo; conditions: compared with procaine
Experimental: D. Following a procedure similar to that described in Example 2G but using 2.5 g. (0.0049 mole) of dextrorotatory 4-hydroxy-α-<{[3-(4-methoxyphenyl)-1-methylpropyl]amino}methyl>- 3-(methylthio)benzenemethanol acetate salt (m.p. 124°-126° C., [α]D^25 =+7.7°) and 375 mg. of commercial 40% peracetic acid there was obtained 2.0 g. of 4-hydroxy-α-<{[3-(4-methoxyphenyl)-1-methylpropyl]amino}methyl>-3-(methylsulfinyl)benzenemethanol acetate salt as an amorphous yellow powder [α]D^25 =+4.2° containing a mixture of 4 diastereomeric sulfoxides. […] Exp. Therap. 85, 78 (1945).

[4] = test system: cardiac contractile force; assay: Cardiotonic test procedure II, intact anesthetized dog; assay type: in vivo, mongrel dogs
Experimental: The efficacy of this compound was judged, in vitro, on the basis of percent increase in contractile force in isolated cat atria and papillary muscle and, in vitro, on the basis of percent increase in cardiac contractile force in the intact anesthetized dog. The in vivo test procedure used is described as follows: Mongrel dogs of both sexes and varying in weight from 9 to 15 kg. were anesthetized with 30 mg./kg. pentobarbital sodium administered intravenously. The trachea was exposed and cannulated. The tracheal cannula was then attached to a Harvard respiratory pump using room air. The right femoral artery and vein were cannulated. […] The venous cannula was used for the intravenous administration of drugs. Pin electrodes were attached to the right forelimb and left hindlimb. The electrodes were then connected to a Grass polygraph for the continuous recording of the standard limb lead II electrocardiogram. A ventro-dorsal incision at the third inter-costal space was made, the ribs laterally retracted and the pericardium slit open to expose the myocardium. The base of the aorta was dissected and a flow probe was fitted around it. The flow probe was attached to a square wave electromagnetic flowmeter (Carolina Medical Electronics). The flowmeter was then connected to a Grass polygraph for the continuous recording of aortic blood flow. This flow was used as an index of cardiac output (actual cardiac output is aortic blood flow+coronary blood flow). Cardiac contractile force was measured by suturing a Walton-Brodie strain gauge to the wall of the right ventricle. At the end of the surgical procedure, the animal was left to rest and equilibrate for one hour with continuous recording of blood pressure, EKG, cardiac contractile force and aortic blood flow. After the equilibration period, the vehicle or the drug dissolved in the vehicle was administered by intravenous infusion (i.v. inf.), intravenous bolus (i.v. bol.) or intraduodenally (i.d.) and the response of all the parameters measured to drug administration was recorded continuously for different periods of times depending on the route of drug administration. When the route of administration was i.v. inf., the drug was administered until a peak effect was reached and infusion was then maintained for ten minutes. The above-described test systems were standardized using dopamine.

papillary muscle = assay: Cardiotonic test procedure IB, isolated cat papillary muscle; conditions: in vitro
Experimental: The efficacy of this compound was judged, in vitro, on the basis of percent increase in contractile force in isolated cat atria and papillary muscle and, in vitro, on the basis of percent increase in cardiac contractile force in the intact anesthetized dog. Male cats 0.8 to 1.5 kg. were anethetized with α-chloralose (80 mg./kg. i.p.). The chest was opened and the heart excised. The heart was dipped and shaken in Tyrode's solution for the removal of blood from the cavities. The right ventricle was then slit open and the small and thin (about 1 mm. in diameter and 4 to 7 mm. in length) papillary muscles were dissected out. A silver wire was attached to each of the two ends of the papillary muscle. The ventricular end was attached to a platinum electrode and mounted in a tissue bath containing Tyrode's solution described above. The silver wire on the valvular end of the muscle was attached to a force displacement transducer for the measurement of the force and rate of muscle contraction. The muscle was stimulated at a rate of 3 beats/sec. by suprathreshold rectangular pulses of 5 millisecond duration. The rest of the procedure was continued as described above.

isolated cat atria = assay: Cardiotonic test procedure I, isolated cat atria; conditions: for Increase in right atrial force / Increase in right atrial rate: in vitro
Experimental: The efficacy of this compound was judged, in vitro, on the basis of percent increase in contractile force in isolated cat atria and papillary muscle and, in vitro, on the basis of percent increase in cardiac contractile force in the intact anesthetized dog. Male cats weighing from 0.8 to 1.5 kg. were anesthetized with α-chloralose (80 mg./kg. i.p.). The chest was opened, the heart excised and the two atria dissected. A silk suture was tied to each of two opposite sides of the right atrium. One side of the atrium was tied to a glass rod and then mounted in a 50 ml. organ bath filled with Tyrode's solution. […] The transducer was then connected to a Grass polygraph and the force and rate of atrial contraction was recorded continuously. The left atrium was treated similarly using silver wire instead of silk sutures. The silver wire also served as a stimulating electrode. Both atria were mounted in the same bath. The right atrium was beating spontaneously due to the presence of the sinoatrial node, while the left atrium was stimulated electrically at a rate of 3 beats/sec. by suprathreshold rectangular pulses of 5 millisecond duration. The Tyrode's solution bathing the atria was of the following composition (in mM): NaCl 136.87, KCl 5.36, NaH2 PO4 0.41, CaCl2 1.80, MgCl2 6H2 O 1.05, NaHCO3 11.90, glucose 5.55 and EDTA 0.04. […] The preparation was left to equilibrate for one hour before any drug was added. The bathing fluid was changed 3 to 4 times during the equilibration time. At the end of equilibration period, the drug dissolved in a vehicle or the vehicle alone was added to the tissue bath and the full response recorded. The vehicle used was Tyrode' s solution to which, if required, sufficient acid was added to cause solution of the drug. […] Generally, a dose response study of at least 3 doses was done in the same preparation.

arrhythmia = assay: Antiarrhythmic activity (in words, test not specified); conditions: in vivo
Experimental: The test procedures were carried out as follows.

For `COc1ccc(CC(C)NCC(O)c2ccc(O)c([S+](C)[O-])c2)cc1` (stereo not drawn) [Example 1I, 4-hydroxy-α-<{[2-(4-methoxyphenyl)-1-methylethyl]amino}methyl>-3-(methylsulfinyl)benzenemethanol hydrochloride], the “Dog β-blockade AED50 (approximate intravenous dose for 50% inhibition of isoproterenol-elicited heart rate increase)” value (β-adrenergic) was 0.04 mg/kg, the ED50 (hind limb vasculature; Canis lupus familiaris, read-out: Vasodilator activity Dog-Leg Perfusion AED50 (approximate intraarterial dose for 50 reduction in perfusion pressure)) was 0.25 mg/kg and the β-adrenergic stimulant activity [1] was “ability to block histamine-induced bronchoconstriction in the dog”. For the same compound, the “Antihypertensive activity SH Rat AHD40 (single oral dose required to induce a 40 mm. average reduction in systolic blood pressure)” value (systolic blood pressure) was 2.0 mg/kg, the “Rabbit Ear Artery vasodilation (percentage reduction in perfusion pressure from control level)” value ([2]; 6.25 × 10^-5 M, 62.5 µM) was 53% and the “Renal Hypertensive Dog MED10 (minimum repeated oral daily dose for sustained lowering of blood pressure of 10% or greater)” value (blood pressure; tid.) was 1.25 mg/kg.

In the case of `COc1ccc(CCC(C)NCC(O)c2ccc(O)c([S+](C)[O-])c2)cc1` (stereo not drawn) [Example 5D, 4-hydroxy-α-<{[3-(4-methoxyphenyl)-1-methylpropyl]amino}methyl>-3-(methylsulfinyl)benzenemethanol acetate salt], the “Dog β-blockade AED50 (approximate intravenous dose for 50% inhibition of isoproterenol-elicited heart rate increase)” value (β-adrenergic; acetate salt) was 0.125 mg/kg, the “Vasodilator activity Dog-Leg Perfusion AED50 (approximate intraarterial dose for 50 reduction in perfusion pressure)” value (hind limb vasculature; intraarterial, anesthetized dog hind limb, acetate salt) was 0.5 mg/kg and the “Antihypertensive activity SH Rat AHD40 (single oral dose required to induce a 40 mm. average reduction in systolic blood pressure)” value (systolic blood pressure; acetate salt) was 3.0 mg/kg. For the same compound, the “Rabbit Ear Artery vasodilation (percentage reduction in perfusion pressure from control level)” value ([2]; 5 × 10^-5 M, 50 µM, acetate salt) was 49%, the Local anesthetic activity [3] was “equi-active with procaine as a local anesthetic” and the “Renal Hypertensive Dog MED10 (minimum repeated oral daily dose for sustained lowering of blood pressure of 10% or greater)” value (blood pressure; tid.) was 0.0316 mg/kg.

With `COc1ccc(CCC(C)NCC(=O)c2ccc(O)c([S+](C)[O-])c2)cc1.Cl` (stereo not shown) [Example 26B, 4'-hydroxy-2-[3-(4-methoxyphenyl)-1-methylpropyl]amino-3'-(methylsulfinyl)-acetophenone hydrochloride] the “Actual percentage inhibition of heart rate increase above control level observed at the indicated dose” value (β-adrenergic; 1.0 mg./kg.) was 18%, the “Dog β-blockade AED50 (approximate intravenous dose for 50% inhibition of isoproterenol-elicited heart rate increase)” value (β-adrenergic) was greater than 1.0 mg/kg and the “Increase in cardiac contractile force” value ([4]; 1.0 mg./kg., first series) was 22%. The “Increase in cardiac contractile force” value ([4]; 1.0 mg./kg., second, similar series) was 4%, the “Increase in cardiac contractile force” value ([4]; 3.0 mg./kg., first series) was 25% and the “Increase in cardiac contractile force” value ([4]; 3.0 mg./kg., second, similar series) was 12%. For the same compound, the “Increase in cardiac contractile force” value ([4]; 10.0 mg./kg., first series) was 59%, the “Increase in cardiac contractile force” value ([4]; 10.0 mg./kg., second, similar series) was 50% and the “Increase in papillary muscle force” value (papillary muscle; 10 /ml.) was 7%. For the same compound, the “Increase in papillary muscle force” value (papillary muscle; 30 /ml.) was 23%, the “Increase in papillary muscle force” value (papillary muscle; 100 /ml.) was 38% and the “Antihypertensive activity SH Rat AHD40 (single oral dose required to induce a 40 mm. average reduction in systolic blood pressure)” value (systolic blood pressure) was “ca. 40.0 mg./kg”. The “Increase in right atrial force” value (isolated cat atria; 10 /ml.) was 1%, the “Increase in right atrial rate” value (isolated cat atria; 10 /ml.) was 0% and the “Increase in right atrial force” value (isolated cat atria; 30 /ml.) was 5%. The “Increase in right atrial rate” value (isolated cat atria; 30 /ml.) was 3%, the “Increase in right atrial force” value (isolated cat atria; 100 /ml.) was 6% and the “Increase in right atrial rate” value (isolated cat atria; 100 /ml.) was 8%. The “Cardiotonic activity (in words)” value (isolated cat atria; one or more of the cardiotonic test procedures) was “cardiotonic activity”, the “Antiarrhythmic activity (in words)” value (arrhythmia) was “antiarrhythmic activity” and the “Renal Hypertensive Dog MED10 (minimum repeated oral daily dose for sustained lowering of blood pressure of 10% or greater)” value (blood pressure; administered once per day) was greater than 20 mg/kg. For the same compound, the “Actual percentage reduction in blood pressure observed at the indicated dose” value (blood pressure; once per day, 20 mg./kg.) was 0.
